Measured values reported in ChEMBL document CHEMBL1201862, “PubChem BioAssay data set” (2004).
Calls of active or inactive are those of the source.

Assays:
[1] = target: T1, Estrogen receptor beta (Homo sapiens, UniProt Q92731);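 further: recombinant ER-beta bound to coactivator SRC1 peptide in presence of estradiol agonist; inhibitors block coactivator peptide binding and lower the FRET signal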
[2] = target: T1, Estrogen receptor beta; test: ERβ–SRC-3 coactivator interaction inhibitors, confirmation, orthogonal assay, biochemical, ELISA, streptavidin-HRP readout (AID 1060)
[3] = test system: HEK293; test: NOD1 signaling inhibitors, primary screen, cell-based, luminescence, uHTS (AID 1578); assay type: functional; conditions: Homo sapiens
[4] = test system: HEK293; test: cells; assay type: functional, cell-based; conditions: Homo sapiens
[5] = test system: HEK293; test: cells; assay type: functional, cell-based; conditions: Homo sapiens; remark: listed apart in the source
[6] = target: Nucleotide-binding oligomerization domain-containing protein 2 (Homo sapiens, UniProt Q9HC29); test: NOD2 signaling inhibitors, cell-based, luminescence, uHTS, HEK293 (AID 1566); assay type: functional
[7] = test system: HEK293; test: NOD2 signaling inhibitors in MDP-stimulated cells, cell-based, uHTS, luminescence (AID 2001); assay type: functional; conditions: Homo sapiens
[8] = test system: HEK293; test: cells; assay type: functional, cell-based; conditions: Homo sapiens; remark: listed apart in the source
[9] = microbe, parasite or virus in culture; assay type: functional; conditions: Mycobacterium tuberculosis
[10] = target: Paired box protein Pax-8 (Homo sapiens, UniProt Q06710); test: inhibitors of PAX8-driven TPO luciferase reporter, dose response, RMG-I cells, cherry-pick (AID 687027); assay type: functional, cell-based;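 further: luciferase reporter driven by Pax8 target thyroperoxidase promoter measured by SteadyGlo luminescence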
[11] = cytotoxicity in OVCAR8 ovarian cancer cells, dose response, PAX8 project, cell-based, plate reader, dry powder samples (AID 743197); assay type: functional; conditions: OVCAR-8
[12] = inhibitors of firefly luciferase expression or activity, dose response, H4 neuroglioma cells, luminescence (AID 1990); assay type: functional, cell-based
[13] = test system: BJ; test: cytotoxicity toward BJ-TERT fibroblasts, dose response, cell-based, RAS-independent, luminescence (AID 1933); assay type: functional; conditions: Homo sapiens
[14] = Luminescence Cell-Based Dose Response HTS to Identify Inhibitors of 5'UTR Stem-Loop Driven Prion Protein mRNA Translation in H4 Neuroglioblastoma Cells. [Related pubchem assays: 1827 (Project Summary), 1813 (Primary HTS)]; assay type: functional
[15] = inhibitors of SNCA 5'UTR-driven reporter translation, confirmation, H4 neuroglioma cells, luminescence (AID 1988); assay type: functional, cell-based
[16] = test system: BJ; test: cells; assay type: functional, cell-based; conditions: Homo sapiens
[17] = test system: BJ; test: cytotoxicity toward BJ-TERT-LT-ST fibroblasts, dose response, cell-based, RAS-independent, luminescence (AID 1935); assay type: functional; conditions: Homo sapiens;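 further: BJ fibroblasts immortalized with TERT plus LT and ST oncogenes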
[18] = cytotoxicity toward DRD oncogenic fibroblasts, dose response, cell-based, non-viral oncogenic, luminescence (AID 1934); assay type: functional; conditions: Homo sapiens
[19] = test system: BJ; test: cytotoxicity toward Ras-transformed BJeLR fibroblasts, dose response, cell-based, alamar blue fluorescence, cherrypicked samples (AID 2631); assay type: functional; conditions: Homo sapiens;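 further: confirmatory dose-response assay in RAS-dependent BJ fibroblasts engineered with TERT, LT and ST, with cytotoxicity read by fluorescence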
[20] = Shn3 3'UTR reporter inhibitors, dose response, cell-based, Clone20 osteoblasts, firefly luciferase, cherry-picked (AID 624132); assay type: functional;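 further: firefly luciferase luminescence from reporter carrying the Shn3 3'UTR in osteoblasts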
[21] = test system: Streptococcus sp. 'group A'; test: growth inhibition of control SK(-) GAS strain, dose response, counter-screen for streptokinase expression inhibitor project, luminescence, kanamycin, BacTiterGlo, confirmation (AID 1900); assay type: functional, organism-based
[22] = target: T2, Streptokinase A (Streptococcus pyogenes serotype M1, UniProt P10520); test: S. pyogenes streptokinase expression inhibitors, potency, dose response, plasminogen activation absorbance, OD405 (AID 1914); assay type: functional, Streptococcus pyogenes M1 GAS;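 further: secreted streptokinase activity via plasminogen activation per viability signal from cell pellet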
T2 sequence (P10520 whole entry): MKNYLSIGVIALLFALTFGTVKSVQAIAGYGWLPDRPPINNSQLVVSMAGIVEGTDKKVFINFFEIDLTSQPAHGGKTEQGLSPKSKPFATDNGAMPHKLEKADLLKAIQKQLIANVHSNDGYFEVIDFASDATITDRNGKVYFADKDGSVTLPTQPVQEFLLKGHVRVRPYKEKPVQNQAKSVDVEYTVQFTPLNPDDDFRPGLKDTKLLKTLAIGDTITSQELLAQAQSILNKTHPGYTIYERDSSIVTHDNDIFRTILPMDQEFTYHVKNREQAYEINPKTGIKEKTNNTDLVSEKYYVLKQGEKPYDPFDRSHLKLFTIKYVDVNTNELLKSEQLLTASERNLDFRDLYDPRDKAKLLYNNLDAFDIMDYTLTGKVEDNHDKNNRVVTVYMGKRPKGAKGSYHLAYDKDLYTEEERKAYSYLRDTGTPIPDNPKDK

[23] = test system: Streptococcus; test: Group A Streptococcus viability loss, dose response, counter-screen for streptokinase expression inhibitor project, luminescence, BacTiterGlo (AID 1915); assay type: functional, organism-based;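 further: potency for reduction of bacterial viability or growth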
[24] = target: T3, X-box-binding protein 1 (Homo sapiens, UniProt P17861); assay type: functional, Cricetulus griseus;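 further: confirmatory dose-response counter-screen serving a CHOP assay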
T3 sequence (P17861 whole entry): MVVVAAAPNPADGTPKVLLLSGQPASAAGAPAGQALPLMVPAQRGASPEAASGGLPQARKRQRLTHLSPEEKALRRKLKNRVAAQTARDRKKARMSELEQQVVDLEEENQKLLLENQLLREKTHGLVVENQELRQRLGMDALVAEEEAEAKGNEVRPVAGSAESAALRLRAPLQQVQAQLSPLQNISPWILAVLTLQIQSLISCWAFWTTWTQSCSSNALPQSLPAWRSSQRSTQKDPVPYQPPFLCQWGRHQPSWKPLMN

[25] = target: T4, Ubiquitin-conjugating enzyme E2 N (Homo sapiens, UniProt P61088); assay type: functional;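 further: Dose-response confirmation in a TR-FRET assay detecting UBC13-driven polyubiquitin chain formation, inhibition measured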
T4 sequence (P61088 whole entry): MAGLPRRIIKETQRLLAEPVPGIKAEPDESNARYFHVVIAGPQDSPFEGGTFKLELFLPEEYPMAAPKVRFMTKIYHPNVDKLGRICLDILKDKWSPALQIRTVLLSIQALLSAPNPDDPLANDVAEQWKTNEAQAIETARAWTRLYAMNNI

[26] = Luminescence Cell-Based Dose Retest to Confirm Inhibitors of Cancer Stem Cells. [Related pubchem assays (depositor defined):AID2717, AID2721]; assay type: functional; conditions: Homo sapiens
[27] = test system: H4; test: Luminescence Cell-Based Dose Response HTS to Identify Activators of 5'UTR Stem-Loop Driven Prion Protein mRNA Translation in H4 Neuroglioblastoma Cells. [Related pubchem assays: 1829 (Project Summary), 1814 (Primary HTS)]; assay type: functional; conditions: Homo sapiens
[28] = test system: P388/ADR; test: cells; assay type: functional; conditions: Mus musculus
[29] = test system: SN12K1; test: cells; assay type: functional; conditions: Homo sapiens
[30] = test system: P388; test: cells; assay type: functional; conditions: Mus musculus
[31] = off-target signal loss in HeLa-CEM21 co-culture – HeLa F-luc CTL cells, cherry-picked, counter-screen for HIV-1 Env fusion inhibitor project, dose response (AID 652040); assay type: functional, cell-based;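 further: potency for signal decrease marking cytotoxic or nonspecific inhibition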
[32] = target: T5, Microphthalmia-associated transcription factor (Homo sapiens, UniProt O75030); test: TRPM1 promoter luciferase signal decrease, dose response, MITF inhibitor project, cell-based, SK-MEL-5, cherry-picked, set 3 (AID 493073); assay type: functional
T5 sequence (O75030 whole entry): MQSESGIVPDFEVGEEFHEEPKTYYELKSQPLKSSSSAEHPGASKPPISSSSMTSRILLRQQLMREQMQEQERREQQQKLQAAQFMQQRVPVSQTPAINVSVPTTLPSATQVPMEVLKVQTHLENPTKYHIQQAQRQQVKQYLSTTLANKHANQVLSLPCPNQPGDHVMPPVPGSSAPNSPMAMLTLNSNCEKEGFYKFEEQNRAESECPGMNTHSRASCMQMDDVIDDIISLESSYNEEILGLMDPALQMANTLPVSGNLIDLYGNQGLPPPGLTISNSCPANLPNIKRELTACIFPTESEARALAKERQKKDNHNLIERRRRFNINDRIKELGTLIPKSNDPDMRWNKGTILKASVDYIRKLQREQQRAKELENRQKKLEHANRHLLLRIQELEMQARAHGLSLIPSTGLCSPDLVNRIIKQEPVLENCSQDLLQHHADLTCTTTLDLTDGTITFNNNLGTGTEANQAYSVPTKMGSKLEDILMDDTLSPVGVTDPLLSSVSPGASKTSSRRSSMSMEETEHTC

T1 sequence (Q92731 whole entry): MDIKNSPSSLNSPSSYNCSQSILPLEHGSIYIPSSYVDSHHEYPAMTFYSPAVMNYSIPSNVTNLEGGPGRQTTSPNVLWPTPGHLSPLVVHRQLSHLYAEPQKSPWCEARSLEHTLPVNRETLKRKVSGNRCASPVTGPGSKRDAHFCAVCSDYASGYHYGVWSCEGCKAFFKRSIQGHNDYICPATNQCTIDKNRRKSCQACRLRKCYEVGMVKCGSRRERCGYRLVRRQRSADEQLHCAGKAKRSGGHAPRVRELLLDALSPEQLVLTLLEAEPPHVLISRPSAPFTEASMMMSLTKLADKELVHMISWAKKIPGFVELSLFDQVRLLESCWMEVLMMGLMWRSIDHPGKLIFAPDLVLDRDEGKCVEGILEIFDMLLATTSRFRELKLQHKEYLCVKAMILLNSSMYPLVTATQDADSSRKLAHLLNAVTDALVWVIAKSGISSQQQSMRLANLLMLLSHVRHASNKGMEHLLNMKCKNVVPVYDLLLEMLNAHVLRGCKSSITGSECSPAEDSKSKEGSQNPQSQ
Chain of Paired box protein Pax-8 (Q06710 whole entry): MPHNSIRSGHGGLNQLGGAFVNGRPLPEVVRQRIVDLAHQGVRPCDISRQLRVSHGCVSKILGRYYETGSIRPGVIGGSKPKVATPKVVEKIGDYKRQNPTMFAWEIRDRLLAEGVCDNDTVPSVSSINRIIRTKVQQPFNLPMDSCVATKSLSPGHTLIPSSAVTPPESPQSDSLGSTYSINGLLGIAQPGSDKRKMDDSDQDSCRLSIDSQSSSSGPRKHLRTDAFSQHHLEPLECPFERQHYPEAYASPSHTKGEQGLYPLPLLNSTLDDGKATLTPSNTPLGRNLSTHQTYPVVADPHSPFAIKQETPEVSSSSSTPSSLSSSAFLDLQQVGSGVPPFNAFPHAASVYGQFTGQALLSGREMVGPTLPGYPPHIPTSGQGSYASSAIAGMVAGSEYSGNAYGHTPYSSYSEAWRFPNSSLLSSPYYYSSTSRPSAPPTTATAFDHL
Chain of Nucleotide-binding oligomerization domain-containing protein 2 (Q9HC29 whole entry, the tested form may be a part): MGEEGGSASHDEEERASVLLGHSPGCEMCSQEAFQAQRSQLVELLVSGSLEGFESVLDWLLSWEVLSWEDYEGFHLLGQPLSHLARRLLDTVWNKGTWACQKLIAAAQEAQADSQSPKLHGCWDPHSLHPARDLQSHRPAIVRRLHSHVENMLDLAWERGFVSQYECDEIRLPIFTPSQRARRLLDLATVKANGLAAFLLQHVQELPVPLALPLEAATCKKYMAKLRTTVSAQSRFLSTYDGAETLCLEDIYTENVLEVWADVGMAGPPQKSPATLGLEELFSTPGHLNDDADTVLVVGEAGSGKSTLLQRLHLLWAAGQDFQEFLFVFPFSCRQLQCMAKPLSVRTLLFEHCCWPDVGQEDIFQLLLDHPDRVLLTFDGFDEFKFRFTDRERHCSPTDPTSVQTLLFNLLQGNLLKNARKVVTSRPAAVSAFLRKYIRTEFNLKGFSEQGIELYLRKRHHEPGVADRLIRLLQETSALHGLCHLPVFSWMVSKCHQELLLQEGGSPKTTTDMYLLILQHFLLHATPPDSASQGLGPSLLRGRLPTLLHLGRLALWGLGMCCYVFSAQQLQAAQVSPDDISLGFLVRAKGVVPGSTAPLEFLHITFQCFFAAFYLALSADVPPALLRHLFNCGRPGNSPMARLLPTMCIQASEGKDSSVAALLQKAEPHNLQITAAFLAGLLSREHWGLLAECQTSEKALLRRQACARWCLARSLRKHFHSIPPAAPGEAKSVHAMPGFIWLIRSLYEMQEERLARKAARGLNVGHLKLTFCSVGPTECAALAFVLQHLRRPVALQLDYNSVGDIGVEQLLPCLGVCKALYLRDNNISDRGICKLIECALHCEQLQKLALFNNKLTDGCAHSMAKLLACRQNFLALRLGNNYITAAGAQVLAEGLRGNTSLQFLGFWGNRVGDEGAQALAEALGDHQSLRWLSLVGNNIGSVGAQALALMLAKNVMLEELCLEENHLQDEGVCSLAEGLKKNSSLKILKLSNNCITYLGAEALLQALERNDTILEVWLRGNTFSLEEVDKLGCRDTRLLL

## O=C(Nc1ccc2c(c1)OCO2)c1cccc2c1C(=O)N(Cc1cccnc1)C2
[1]
  IC50: > 50 µM (not active)
[2]
  IC50: 3.13 µM (not active)

## O=C(COc1ccc(Cl)cc1)Nc1nc(-c2ccc(S(=O)(=O)N3CCOCC3)cc2)cs1
[3]
  EC50: 10.3 µM (active)
[4]
  IC50: 3.9 µM (active)
[5]
  IC50: > 20 µM (inactive)
[6]
  EC50: 17 µM (active)
[7]
  IC50: 4.96 µM (active)
[8]
  IC50: > 20 µM (inactive)

## CCc1ccc(-c2cc(C)no2)cc1S(=O)(=O)NCCCN1CCN(c2ccccc2)CC1
[3]
  EC50: 6.88 µM (active)
[4]
  IC50: 4.42 µM (active)
[5]
  IC50: 7.44 µM (active)
[7]
  IC50: 4.26 µM (active)
[9]
  CC50: 30.9 µM (active)

## C[C@@H]1CCCCO[C@@H](CN(C)C(=O)Nc2ccc(C(F)(F)F)cc2)[C@H](C)CN([C@H](C)CO)C(=O)c2cc(NS(=O)(=O)c3ccccc3)ccc2O1
[10]
  AC50: 6.96 µM (active)
[11]
  AC50: > 70 µM (inactive)

## Cc1ccc(Cc2cncc(O)c2)cc1S(=O)(=O)O
[1]
  IC50: 13.5 µM (active)
[2]
  IC50: 0.353 µM (not active)

## CC1(C)CC(=O)c2c(nc(SCC(=O)Nc3nsc(-c4ccccc4)n3)c(C#N)c2-c2ccccc2)C1
[12]
  EC50: > 120 µM (not active)
[13]
  EC50: > 150 µM (not active)
[14]
  EC50: > 120 µM (not active)
[15]
  EC50: 13.4 µM (active)
[16]
  EC50: 7.76 µM (active)
[17]
  EC50: > 150 µM (not active)
[18]
  EC50: 35 µM (active)
[19]
  EC50: 0.596 µM (active)
[20]
  AC50: > 70 µM (inactive)

## Cc1ccc(-c2nc3cc(NS(=O)(=O)c4ccc(C)cc4)ccc3o2)cc1
[21]
  EC50: 5.82 µM (active)
[22]
  EC50: 5.86 µM (active)
[23]
  EC50: 18.1 µM (active)
[24]
  Absolute IC50 (XBP1): 10 µM

## O=C(CCN1C(=O)/C(=C/c2ccccc2Cl)SC1=S)NCCCN1CCOCC1
[25]
  IC50: > 20 µM (inactive)

## Cn1cnc(Sc2[nH]cnc3ncnc2-3)c1[N+](=O)[O-]
[13]
  EC50: > 150 µM (not active)
[16]
  EC50: 8.4 µM (active)
[17]
  EC50: > 150 µM (not active)
[18]
  EC50: 13 µM (active)
[26]
  AC50: 1.42 µM (active)
[19]
  EC50: > 133 µM (inactive)

## Nc1ncn([C@H]2C[C@H](O)[C@@H](CO)O2)c(=O)n1 [DECITABINE]
[27]
  EC50: 94.9 µM (active)
[28]
  GI50: 0.0959 µM (active)
[29]
  GI50: > 375 µM (inactive)
[30]
  GI50: 0.051 µM (active)
[31]
  AC50: > 70 µM (inactive)

## O=C(Nc1cc(-c2nc3ncccc3o2)ccc1Cl)c1ccc([N+](=O)[O-])o1
[32]
  AC50: 5.76 µM (active)
